Measurements: PubChem BioAssay AID2060512 (Molecular Pharmacology Branch, DTP, NCI, 2025)
Blank lines part the entries; values can stand above or below the compound they belong to.

System: 186277-243-T-J2-PDC complex spheroid viability
Assay: Anticancer human tumor 186277-243-T-J2-PDC patient-derived colon adenocarcinoma cell line growth inhibition [GQUAD]
Conditions: for IC50: curve of first compound; for viability, T/C: stronger effect = lower value
How it was run: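 Multi-cell-type spheroids of tumor cells with HUVEC and mesenchymal stem cells, treated with drug combinations. Concentrations descend in half-log steps from near clinical Cmax, or from 10 microM where Cmax is unknown; viability read-out.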

[1] = second compound 0.0316 µM, first compound 0.0316 µM
[2] = second compound 0.0316 µM, first compound 0.1 µM
[3] = second compound 0.0316 µM, first compound 0.316 µM
[4] = second compound 0.0316 µM, first compound 1 µM
[5] = second compound 0.0316 µM, first compound 3.16 µM
[6] = second compound 0.0316 µM, first compound 10 µM
[7] = second compound 0.1 µM, first compound 0.0316 µM
[8] = second compound 0.1 µM, first compound 0.1 µM
[9] = second compound 0.1 µM, first compound 0.316 µM
[10] = second compound 0.1 µM, first compound 1 µM
[11] = second compound 0.1 µM, first compound 3.16 µM
[12] = second compound 0.1 µM, first compound 10 µM
[13] = second compound 0.316 µM, first compound 0.0316 µM
[14] = second compound 0.316 µM, first compound 0.1 µM
[15] = second compound 0.316 µM, first compound 0.316 µM
[16] = second compound 0.316 µM, first compound 1 µM
[17] = second compound 0.316 µM, first compound 3.16 µM
[18] = second compound 0.316 µM, first compound 10 µM
[19] = second compound 1 µM, first compound 0.0316 µM
[20] = second compound 1 µM, first compound 0.1 µM
[21] = second compound 1 µM, first compound 0.316 µM
[22] = second compound 1 µM, first compound 1 µM
[23] = second compound 1 µM, first compound 3.16 µM
[24] = second compound 1 µM, first compound 10 µM
[25] = second compound 3.16 µM, first compound 0.0316 µM
[26] = second compound 3.16 µM, first compound 0.1 µM
[27] = second compound 3.16 µM, first compound 0.316 µM
[28] = second compound 3.16 µM, first compound 1 µM
[29] = second compound 3.16 µM, first compound 3.16 µM
[30] = second compound 3.16 µM, first compound 10 µM
[31] = second compound 10 µM, first compound 0.0316 µM
[32] = second compound 10 µM, first compound 0.1 µM
[33] = second compound 10 µM, first compound 0.316 µM
[34] = second compound 10 µM, first compound 1 µM
[35] = second compound 10 µM, first compound 3.16 µM
[36] = second compound 10 µM, first compound 10 µM
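Also: spheroids exposed to drugs for 7 days.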
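For viability, T/C in this document: 100% = DMSO vehicle control viability.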

- IC50 (second compound 0.0316 µM): < 31.6 nM
- IC50 (second compound 0.1 µM): < 31.6 nM
- IC50 (second compound 0.316 µM): < 31.6 nM
- IC50 (second compound 1 µM): < 31.6 nM
- IC50 (second compound 3.16 µM): < 31.6 nM
- IC50 (second compound 10 µM): < 31.6 nM
Structure (SMILES): Nc1ccn(C2OC(CO)C(O)C2(F)F)c(=O)n1 (stereo unspecified) + Cc1cnc(CNC(=O)c2c(=O)c3ccc(N4CCCN(C)CC4)nc3n3c2sc2ccccc23)cn1
- viability, T/C [1]: 21.2%
- viability, T/C [2]: 13.3%
- viability, T/C [3]: 12.3%
- viability, T/C [4]: 11.9%
- viability, T/C [5]: 12.2%
- viability, T/C [6]: 12.8%
- viability, T/C [7]: 27.1%
- viability, T/C [8]: 17.6%
- viability, T/C [9]: 15.3%
- viability, T/C [10]: 12.9%
- viability, T/C [11]: 15.4%
- viability, T/C [12]: 15.9%
- viability, T/C [13]: 36%
- viability, T/C [14]: 28.4%
- viability, T/C [15]: 21.5%
- viability, T/C [16]: 16.8%
- viability, T/C [17]: 18.6%
- viability, T/C [18]: 16%
- viability, T/C [19]: 32.6%
- viability, T/C [20]: 30.2%
- viability, T/C [21]: 22.8%
- viability, T/C [22]: 21.4%
- viability, T/C [23]: 19.9%
- viability, T/C [24]: 17.7%
- viability, T/C [25]: 33.1%
- viability, T/C [26]: 24.8%
- viability, T/C [27]: 22.6%
- viability, T/C [28]: 19.5%
- viability, T/C [29]: 19.3%
- viability, T/C [30]: 16.5%
- viability, T/C [31]: 34.3%
- viability, T/C [32]: 25.1%
- viability, T/C [33]: 25.4%
- viability, T/C [34]: 18.7%
- viability, T/C [35]: 21.4%
- viability, T/C [36]: 19.2%

Structure (SMILES): CC[C@@]1(O)C(=O)OCc2c1cc1n(c2=O)Cc2cc3c(CN(C)C)c(O)ccc3nc2-1 + Cc1[nH]c2ccc(F)cc2c1-c1nc2c3cccnc3c3ncccc3c2[nH]1
- IC50 (second compound 0.0316 µM): > 316 nM
- IC50 (second compound 0.1 µM): > 316 nM
- IC50 (second compound 0.316 µM): > 316 nM
- IC50 (second compound 1 µM): > 316 nM
- IC50 (second compound 3.16 µM): > 316 nM
- IC50 (second compound 10 µM): > 316 nM
- viability, T/C (second compound 0.0316 µM, first compound 0.000999 µM): 97%
- viability, T/C (second compound 0.0316 µM, first compound 0.00316 µM): 91.6%
- viability, T/C (second compound 0.0316 µM, first compound 0.00999 µM): 88.2%
- viability, T/C [1]: 93.9%
- viability, T/C (second compound 0.0316 µM, first compound 0.0999 µM): 68.2%
- viability, T/C [3]: 51.6%
- viability, T/C (second compound 0.1 µM, first compound 0.000999 µM): 111%
- viability, T/C (second compound 0.1 µM, first compound 0.00316 µM): 106%
- viability, T/C (second compound 0.1 µM, first compound 0.00999 µM): 94.2%
- viability, T/C [7]: 93.7%
- viability, T/C (second compound 0.1 µM, first compound 0.0999 µM): 77.9%
- viability, T/C [9]: 59.6%
- viability, T/C (second compound 0.316 µM, first compound 0.000999 µM): 96.3%
- viability, T/C (second compound 0.316 µM, first compound 0.00316 µM): 95%
- viability, T/C (second compound 0.316 µM, first compound 0.00999 µM): 92.8%
- viability, T/C [13]: 89.8%
- viability, T/C (second compound 0.316 µM, first compound 0.0999 µM): 78%
- viability, T/C [15]: 60.7%
- viability, T/C (second compound 1 µM, first compound 0.000999 µM): 95.3%
- viability, T/C (second compound 1 µM, first compound 0.00316 µM): 101%
- viability, T/C (second compound 1 µM, first compound 0.00999 µM): 94.8%
- viability, T/C [19]: 103%
- viability, T/C (second compound 1 µM, first compound 0.0999 µM): 77.7%
- viability, T/C [21]: 55.7%
- viability, T/C (second compound 3.16 µM, first compound 0.000999 µM): 118%
- viability, T/C (second compound 3.16 µM, first compound 0.00316 µM): 94.1%
- viability, T/C (second compound 3.16 µM, first compound 0.00999 µM): 109%
- viability, T/C [25]: 92.9%
- viability, T/C (second compound 3.16 µM, first compound 0.0999 µM): 67.4%
- viability, T/C [27]: 57.4%
- viability, T/C (second compound 10 µM, first compound 0.000999 µM): 87.9%
- viability, T/C (second compound 10 µM, first compound 0.00316 µM): 99.9%
- viability, T/C (second compound 10 µM, first compound 0.00999 µM): 86.8%
- viability, T/C [31]: 87.3%
- viability, T/C (second compound 10 µM, first compound 0.0999 µM): 79.8%
- viability, T/C [33]: 56.1%

- IC50 (second compound 0.0316 µM): > 10000 nM
- IC50 (second compound 0.1 µM): > 10000 nM
- IC50 (second compound 0.316 µM): > 10000 nM
- IC50 (second compound 1 µM): < 31.6 nM
- IC50 (second compound 3.16 µM): < 31.6 nM
- IC50 (second compound 10 µM): < 31.6 nM
Structure (SMILES): O=c1[nH]cc(F)c(=O)[nH]1 + Cc1cnc(CNC(=O)c2c(=O)c3ccc(N4CCCN(C)CC4)nc3n3c2sc2ccccc23)cn1
- viability, T/C [1]: 106%
- viability, T/C [2]: 110%
- viability, T/C [3]: 109%
- viability, T/C [4]: 98.5%
- viability, T/C [5]: 82.9%
- viability, T/C [6]: 57%
- viability, T/C [7]: 86.4%
- viability, T/C [8]: 93.7%
- viability, T/C [9]: 99.9%
- viability, T/C [10]: 79%
- viability, T/C [11]: 93.3%
- viability, T/C [12]: 66.3%
- viability, T/C [13]: 76.8%
- viability, T/C [14]: 73.3%
- viability, T/C [15]: 84.7%
- viability, T/C [16]: 57.7%
- viability, T/C [17]: 75.1%
- viability, T/C [18]: 55.1%
- viability, T/C [19]: 47.9%
- viability, T/C [20]: 56.3%
- viability, T/C [21]: 50.7%
- viability, T/C [22]: 56.6%
- viability, T/C [23]: 64.3%
- viability, T/C [24]: 56.3%
- viability, T/C [25]: 49.4%
- viability, T/C [26]: 44.8%
- viability, T/C [27]: 51.5%
- viability, T/C [28]: 50.7%
- viability, T/C [29]: 61.7%
- viability, T/C [30]: 43.7%
- viability, T/C [31]: 40.5%
- viability, T/C [32]: 41.7%
- viability, T/C [33]: 39.2%
- viability, T/C [34]: 53.3%
- viability, T/C [35]: 48.7%
- viability, T/C [36]: 45.9%
